Measurements reported in patent publication US12533428B2, “Multimodal fluorine-CY3/5/7-DOTA-hapten compositions, diagnostics, fluorescence guided surgery and radioimmunotherapy” (Memorial Sloan Kettering Cancer Center, priority 2019, dated 2026).

Experiments:
[1] = In vivo biodistribution and pharmacokinetics in tumor free mice (gamma counter); details: for Biodistribution, comparison of the two probes: FIG. 17B; for Clearance (time course of activity in vital tissues and blood): comparison of the two probes
Protocol: The in vivo biodistribution and pharmacokinetics of ([^177Lu]-Compound 6) and BnDOTA[^177Lu] was investigated in tumor free mice. See FIGS. 17A-17B and Tables 2 and 3. Mice were dosed with radiolabeled probes at t=0 and sacrificed at various time points. Organs were harvested and activity was counted by gamma counter. Tables 2-3 show the serial biodistribution data for the analyzed organs of Compound 6 and Compound 2, respectively. FIG. 17A overlays the time course in activity in either vital tissues (left panel) or the blood (right panel) between the two probes.

SW-1222 tumor = assay: In vivo tumor uptake using 3-step PRIT; design: species or system mice; details: for Tumor Uptake: SW-1222 tumor-bearing mice pretreated with anti-GPA33/anti-DOTA BsAb and DOTA-dendrimer clearing agent, in %ID/g
Protocol: The in vivo tumor uptake of [F]Cy3D [^177Lu] ([^177Lu]-Compound 6) was analyzed in tumor-bearing (SW-1222) mice.

[2] = Lg. Intestine, 1 h after dosing
[3] = Lg. Intestine, 2 h after dosing
[4] = Lg. Intestine, 4 h after dosing
[5] = Lg. Intestine, 24 h after dosing
[6] = Lg. Intestine, 48 h after dosing
[7] = Sm. Intestine, 1 h after dosing
[8] = Sm. Intestine, 2 h after dosing
[9] = Sm. Intestine, 4 h after dosing
[10] = Sm. Intestine, 24 h after dosing
[11] = Sm. Intestine, 48 h after dosing

## CC1(C)C(=CC=CC2=[N+](CCCCCC(=O)NCC[N+](C)(C)C[B-](F)(F)F)c3ccc(S(=O)(=O)[O-])cc3C2(C)C)N(CCCCCC(=O)Nc2ccc(CC3CN(CC(=O)[O-])CCN(CC(=O)[O-])CCN(CC(=O)[O-])CCN3CC(=O)[O-])cc2)c2ccc(S(=O)(=O)[O-])cc21.[177Lu+3] (stereo not shown) [[^177Lu]-Compound 6, [F]Cy3D[^177Lu]]
[1]; Blood, 1 h after dosing
  Uptake: 0.122 ± 0.005 % injected Dose/gram
[1]; Blood, 2 h after dosing
  Uptake: 0.034 ± 0.005 % injected Dose/gram
[1]; Blood, 4 h after dosing
  Uptake: 0.014 ± 0.001 % injected Dose/gram
[1]; Blood, 24 h after dosing
  Uptake: 0.004 ± 0.002 % injected Dose/gram
[1]; Blood, 48 h after dosing
  Uptake: 0.003 ± 0 % injected Dose/gram
[1]; Bone, 1 h after dosing
  Uptake: 0.065 ± 0.009 % injected Dose/gram
[1]; Bone, 2 h after dosing
  Uptake: 0.043 ± 0.007 % injected Dose/gram
[1]; Bone, 4 h after dosing
  Uptake: 0.038 ± 0.012 % injected Dose/gram
[1]; Bone, 24 h after dosing
  Uptake: 0.019 ± 0.003 % injected Dose/gram
[1]; Bone, 48 h after dosing
  Uptake: 0.021 ± 0.001 % injected Dose/gram
[1]; Brain, 1 h after dosing
  Uptake: 0.007 ± 0.001 % injected Dose/gram
[1]; Brain, 2 h after dosing
  Uptake: 0.014 ± 0.01 % injected Dose/gram
[1]; Brain, 4 h after dosing
  Uptake: 0.004 ± 0 % injected Dose/gram
[1]; Brain, 24 h after dosing
  Uptake: 0.001 ± 0.001 % injected Dose/gram
[1]; Brain, 48 h after dosing
  Uptake: 0.001 ± 0 % injected Dose/gram
[1]
  Biodistribution, comparison of the two probes: comparable biodistribution
  Clearance (time course of activity in vital tissues and blood): cleared at similar rates
[1]; Heart, 1 h after dosing
  Uptake: 0.056 ± 0.006 % injected Dose/gram
[1]; Heart, 2 h after dosing
  Uptake: 0.027 ± 0.004 % injected Dose/gram
[1]; Heart, 4 h after dosing
  Uptake: 0.017 ± 0 % injected Dose/gram
[1]; Heart, 24 h after dosing
  Uptake: 0.008 ± 0.006 % injected Dose/gram
[1]; Heart, 48 h after dosing
  Uptake: 0.009 ± 0 % injected Dose/gram
[1]; Kidneys, 1 h after dosing
  Uptake: 1.021 ± 0.096 % injected Dose/gram
[1]; Kidneys, 2 h after dosing
  Uptake: 1.147 ± 0.184 % injected Dose/gram
[1]; Kidneys, 4 h after dosing
  Uptake: 0.989 ± 0.1 % injected Dose/gram
[1]; Kidneys, 24 h after dosing
  Uptake: 0.66 ± 0.07 % injected Dose/gram
[1]; Kidneys, 48 h after dosing
  Uptake: 0.5 ± 0.05 % injected Dose/gram
[1]; [2]
  Uptake: 0.046 ± 0.009 % injected Dose/gram
[1]; [3]
  Uptake: 2.577 ± 0.409 % injected Dose/gram
[1]; [4]
  Uptake: 2.356 ± 1.032 % injected Dose/gram
[1]; [5]
  Uptake: 0.047 ± 0.016 % injected Dose/gram
[1]; [6]
  Uptake: 0.035 ± 0.021 % injected Dose/gram
[1]; Liver, 1 h after dosing
  Uptake: 0.119 ± 0.015 % injected Dose/gram
[1]; Liver, 2 h after dosing
  Uptake: 0.12 ± 0.025 % injected Dose/gram
[1]; Liver, 4 h after dosing
  Uptake: 0.088 ± 0.009 % injected Dose/gram
[1]; Liver, 24 h after dosing
  Uptake: 0.063 ± 0.007 % injected Dose/gram
[1]; Liver, 48 h after dosing
  Uptake: 0.052 ± 0.007 % injected Dose/gram
[1]; Lungs, 1 h after dosing
  Uptake: 0.142 ± 0.017 % injected Dose/gram
[1]; Lungs, 2 h after dosing
  Uptake: 0.071 ± 0.01 % injected Dose/gram
[1]; Lungs, 4 h after dosing
  Uptake: 0.041 ± 0.004 % injected Dose/gram
[1]; Lungs, 24 h after dosing
  Uptake: 0.023 ± 0.005 % injected Dose/gram
[1]; Lungs, 48 h after dosing
  Uptake: 0.017 ± 0.001 % injected Dose/gram
[1]; Muscle, 1 h after dosing
  Uptake: 0.04 ± 0.009 % injected Dose/gram
[1]; Muscle, 2 h after dosing
  Uptake: 0.032 ± 0.014 % injected Dose/gram
[1]; Muscle, 4 h after dosing
  Uptake: 0.023 ± 0.013 % injected Dose/gram
[1]; Muscle, 24 h after dosing
  Uptake: 0.008 ± 0.003 % injected Dose/gram
[1]; Muscle, 48 h after dosing
  Uptake: 0.007 ± 0 % injected Dose/gram
[1]; [7]
  Uptake: 0.914 ± 0.311 % injected Dose/gram
[1]; [8]
  Uptake: 0.958 ± 0.379 % injected Dose/gram
[1]; [9]
  Uptake: 0.169 ± 0.258 % injected Dose/gram
[1]; [10]
  Uptake: 0.022 ± 0.007 % injected Dose/gram
[1]; [11]
  Uptake: 0.016 ± 0.003 % injected Dose/gram
[1]; Spleen, 1 h after dosing
  Uptake: 0.06 ± 0.008 % injected Dose/gram
[1]; Spleen, 2 h after dosing
  Uptake: 0.048 ± 0.021 % injected Dose/gram
[1]; Spleen, 4 h after dosing
  Uptake: 0.032 ± 0.004 % injected Dose/gram
[1]; Spleen, 24 h after dosing
  Uptake: 0.029 ± 0.002 % injected Dose/gram
[1]; Spleen, 48 h after dosing
  Uptake: 0.022 ± 0.001 % injected Dose/gram
[1]; Stomach, 1 h after dosing
  Uptake: 0.734 ± 1.363 % injected Dose/gram
[1]; Stomach, 2 h after dosing
  Uptake: 0.985 ± 0.861 % injected Dose/gram
[1]; Stomach, 4 h after dosing
  Uptake: 0.186 ± 0.256 % injected Dose/gram
[1]; Stomach, 24 h after dosing
  Uptake: 0.02 ± 0.011 % injected Dose/gram
[1]; Stomach, 48 h after dosing
  Uptake: 0.019 ± 0 % injected Dose/gram
[1]; Tail, 1 h after dosing
  Uptake: 0.279 ± 0.079 % injected Dose/gram
[1]; Tail, 2 h after dosing
  Uptake: 0.237 ± 0.128 % injected Dose/gram
[1]; Tail, 4 h after dosing
  Uptake: 0.154 ± 0.102 % injected Dose/gram
[1]; Tail, 24 h after dosing
  Uptake: 0.079 ± 0.026 % injected Dose/gram
[1]; Tail, 48 h after dosing
  Uptake: 0.018 ± 0.016 % injected Dose/gram
SW-1222 tumor; 1 h
  Tumor Uptake: 25.24 ± 4.49
SW-1222 tumor; 4 h
  Tumor Uptake: 21.93 ± 2.25
SW-1222 tumor; 24 h
  Tumor Uptake: 23.17 ± 4.83
SW-1222 tumor; 48 h
  Tumor Uptake: 22.13 ± 5.37
SW-1222 tumor; SW-1222 tumor-bearing mice, 3-step PRIT
  Binding to BsAb-treated tumor in vivo compared to the standard BnDOTA[^177Lu]: equal specificity and efficacy

## BnDOTA[^177Lu] [[^177Lu]-Compound 2, reference compound]
[1]; Blood, 1 h after dosing
  Uptake: 0.068 ± 0.029 % injected Dose/gram
[1]; Blood, 2 h after dosing
  Uptake: 0.013 ± 0.005 % injected Dose/gram
[1]; Blood, 4 h after dosing
  Uptake: 0.001 ± 0 % injected Dose/gram
[1]; Blood, 24 h after dosing
  Uptake: 0.001 ± 0 % injected Dose/gram
[1]; Blood, 48 h after dosing
  Uptake: 0.001 ± 0.001 % injected Dose/gram
[1]; Bone, 1 h after dosing
  Uptake: 0.04 ± 0.012 % injected Dose/gram
[1]; Bone, 2 h after dosing
  Uptake: 0.325 ± 0.276 % injected Dose/gram
[1]; Bone, 4 h after dosing
  Uptake: 0.015 ± 0.013 % injected Dose/gram
[1]; Bone, 24 h after dosing
  Uptake: 0.01 ± 0.008 % injected Dose/gram
[1]; Bone, 48 h after dosing
  Uptake: 0.018 ± 0.028 % injected Dose/gram
[1]; Brain, 1 h after dosing
  Uptake: 0.015 ± 0.006 % injected Dose/gram
[1]; Brain, 2 h after dosing
  Uptake: 0.025 ± 0.01 % injected Dose/gram
[1]; Brain, 4 h after dosing
  Uptake: 0.01 ± 0 % injected Dose/gram
[1]; Brain, 24 h after dosing
  Uptake: 0.001 ± 0 % injected Dose/gram
[1]; Brain, 48 h after dosing
  Uptake: 0.001 ± 0.001 % injected Dose/gram
[1]
  Biodistribution, comparison of the two probes: comparable biodistribution
  Clearance (time course of activity in vital tissues and blood): cleared at similar rates
[1]; Heart, 1 h after dosing
  Uptake: 0.033 ± 0.013 % injected Dose/gram
[1]; Heart, 2 h after dosing
  Uptake: 0.023 ± 0.005 % injected Dose/gram
[1]; Heart, 4 h after dosing
  Uptake: 0.01 ± 0 % injected Dose/gram
[1]; Heart, 24 h after dosing
  Uptake: 0.01 ± 0 % injected Dose/gram
[1]; Heart, 48 h after dosing
  Uptake: 0.016 ± 0.03 % injected Dose/gram
[1]; Kidneys, 1 h after dosing
  Uptake: 0.86 ± 0.177 % injected Dose/gram
[1]; Kidneys, 2 h after dosing
  Uptake: 0.8 ± 0.065 % injected Dose/gram
[1]; Kidneys, 4 h after dosing
  Uptake: 0.695 ± 0.106 % injected Dose/gram
[1]; Kidneys, 24 h after dosing
  Uptake: 0.448 ± 0.109 % injected Dose/gram
[1]; Kidneys, 48 h after dosing
  Uptake: 0.233 ± 0.153 % injected Dose/gram
[1]; [2]
  Uptake: 0.088 ± 0.083 % injected Dose/gram
[1]; [3]
  Uptake: 2.878 ± 2.718 % injected Dose/gram
[1]; [4]
  Uptake: 1.865 ± 0.963 % injected Dose/gram
[1]; [5]
  Uptake: 0.02 ± 0 % injected Dose/gram
[1]; [6]
  Uptake: 0.018 ± 0.013 % injected Dose/gram
[1]; Liver, 1 h after dosing
  Uptake: 0.658 ± 0.074 % injected Dose/gram
[1]; Liver, 2 h after dosing
  Uptake: 0.358 ± 0.083 % injected Dose/gram
[1]; Liver, 4 h after dosing
  Uptake: 0.065 ± 0.024 % injected Dose/gram
[1]; Liver, 24 h after dosing
  Uptake: 0.028 ± 0.01 % injected Dose/gram
[1]; Liver, 48 h after dosing
  Uptake: 0.018 ± 0.012 % injected Dose/gram
[1]; Lungs, 1 h after dosing
  Uptake: 0.083 ± 0.032 % injected Dose/gram
[1]; Lungs, 2 h after dosing
  Uptake: 0.048 ± 0.005 % injected Dose/gram
[1]; Lungs, 4 h after dosing
  Uptake: 0.023 ± 0.005 % injected Dose/gram
[1]; Lungs, 24 h after dosing
  Uptake: 0.013 ± 0.005 % injected Dose/gram
[1]; Lungs, 48 h after dosing
  Uptake: 0.01 ± 0 % injected Dose/gram
[1]; Muscle, 1 h after dosing
  Uptake: 0.028 ± 0.01 % injected Dose/gram
[1]; Muscle, 2 h after dosing
  Uptake: 0.043 ± 0.013 % injected Dose/gram
[1]; Muscle, 4 h after dosing
  Uptake: 0.013 ± 0.005 % injected Dose/gram
[1]; Muscle, 24 h after dosing
  Uptake: 0.003 ± 0.005 % injected Dose/gram
[1]; Muscle, 48 h after dosing
  Uptake: 0.051 ± 0.1 % injected Dose/gram
[1]; [7]
  Uptake: 1.493 ± 0.554 % injected Dose/gram
[1]; [8]
  Uptake: 0.86 ± 0.389 % injected Dose/gram
[1]; [9]
  Uptake: 0.128 ± 0.05 % injected Dose/gram
[1]; [10]
  Uptake: 0.01 ± 0 % injected Dose/gram
[1]; [11]
  Uptake: 0.005 ± 0.006 % injected Dose/gram
[1]; Spleen, 1 h after dosing
  Uptake: 0.06 ± 0.041 % injected Dose/gram
[1]; Spleen, 2 h after dosing
  Uptake: 0.053 ± 0.005 % injected Dose/gram
[1]; Spleen, 4 h after dosing
  Uptake: 0.025 ± 0.01 % injected Dose/gram
[1]; Spleen, 24 h after dosing
  Uptake: 0.023 ± 0.005 % injected Dose/gram
[1]; Spleen, 48 h after dosing
  Uptake: 0.01 ± 0.012 % injected Dose/gram
[1]; Stomach, 1 h after dosing
  Uptake: 0.06 ± 0.055 % injected Dose/gram
[1]; Stomach, 2 h after dosing
  Uptake: 0.2 ± 0.071 % injected Dose/gram
[1]; Stomach, 4 h after dosing
  Uptake: 0.045 ± 0.017 % injected Dose/gram
[1]; Stomach, 24 h after dosing
  Uptake: 0.01 ± 0 % injected Dose/gram
[1]; Stomach, 48 h after dosing
  Uptake: 0.013 ± 0.013 % injected Dose/gram
[1]; Tail, 1 h after dosing
  Uptake: 0.245 ± 0.179 % injected Dose/gram
[1]; Tail, 2 h after dosing
  Uptake: 0.183 ± 0.056 % injected Dose/gram
[1]; Tail, 4 h after dosing
  Uptake: 0.118 ± 0.041 % injected Dose/gram
[1]; Tail, 24 h after dosing
  Uptake: 0.065 ± 0.044 % injected Dose/gram
[1]; Tail, 48 h after dosing
  Uptake: 0.01 ± 0.008 % injected Dose/gram
